Where a SMILES comes first, the peptide text is derived from it.
Assays:
in vitro = conditions: human
In short: (§1)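 Peptides at 2-200 μmol.l^−1 incubated 1 h at 37 °C with 5% v/v human erythrocyte suspension in physiological solution. Released haemoglobin in supernatant read at 540 nm against buffer (0%) and 0.2% Triton X100 (100%) lysis controls. LC50 is the peptide concentration lysing 50% of cells.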

[1] = tested on: S. aureus (Liberec) biofilm; assay: Bacterial biofilm, remaining metabolic activity (MTT); format: cell-based, Staphylococcus aureus; conditions: remaining metabolic activity of biofilm, 20 h
Method: (§2) Inoculum of S. aureus (Liberec) or P. aeruginosa (Liberec) cultivated overnight in BHI medium was diluted with fresh BHI medium containing 1% glucose to a final concentration to be ca. 10^8 CFU/ml. Then this was pipetted (100 μl) to 96-multiwell polystyrene plate which was incubated at 37° C. under rotary shaking (300 RPM) for 24 h. Medium without bacteria in the wells was used as a negative control. Supernatant from each well was drained and the biofilm formed on the bottom and on the walls of the wells was cautiously washed three times by sterile physiological solution (300 μl). The peptides tested in the concentrations of 1-128 μmol.l^−1 were prepared by twofold serial dilution of their stock solution (1 mmol.l^−1) in fresh BHI medium and then pipetted (100 μl) to the wells with formed biofilms. The biofilms covered by BHI medium without peptide were used as a positive control. The plates were then incubated for 20 h as described above. After that the liquid was drained out and wells were washed twice with sterile physiological solution.
(§3) The metabolic activity of surviving bacterial cells in the biofilm was determined by staining with MTT (3-(4,5-dimethylthiazol-2-yl)-2,5-diphenyl-2H-tetrazolium bromide) as follows: The mixture of BHI medium (100 μl) and 10 μl of the stock solution of MTT (5 mg/ml in physiological solution) was added to each well and the plate was incubated 40 min at 37° C. The liquid was drained out and the insoluble formazan crystals formed by reduction inside the biofilm were dissolved with dimethyl sulphoxide (100 μl). The intensity of staining in each well was measured as absorbance at 540 nm on a Tecan Infinite M200 Pro reader (Tecan GmbH, Austria). Remaining activity of surviving cells inside the biofilm was expressed for each well in percentage according to the following equation:
(§4) [formula] where A is the absorbance of the tested compound, ABL is the absorbance of the negative control, and AC is the absorbance of control biofilm.

[2] = tested on: P. aeruginosa (Liberec) biofilm; assay: as above; format: cell-based, Pseudomonas aeruginosa; conditions: remaining metabolic activity of biofilm, 20 h
Method: as §2, §3, §4

[3] = tested on: Candida albicans (Olomouc) biofilm; assay: C. albicans biofilm, remaining metabolic activity (XTT); format: cell-based
In short: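 Candida albicans (Olomouc) biofilms grown 48 h at 37 °C in MOPS-buffered RPMI 1640 from 1×10^6 CFU inocula, then exposed 20 h to peptide at 0.39-200 μmol.l^−1. XTT/PMS staining for 90 min, A540; remaining metabolic activity expressed as percent of untreated biofilm after blank correction.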

C. glabrata ATCC 2001 = assay: Lethal effect on yeast cells by plating test; format: cell-based, Candida glabrata; conditions: 15 minutes exposure, peptide alone, FIG. 1B
Method: C. glabrata ATCC 2001 cells were aerobically cultivated at 30° C. on YPD medium (Formedium) overnight. A small volume of inoculum was added to fresh YPD medium to final concentration of cells 5×10^6 CFU/ml (corresponding value OD600=0.2). Yeast cells were cultivated at 30° C. (190 rpm) until they reach early exponential growth phase, usually further 4-5 h. Cells were harvested, washed twice with distilled water (1.5 min, 3000 g) and resuspended in MES-TEA buffer (10 mM 4-morpholineethanesulphonic acid, pH 6.0 adjusted with triethanolamine, both chemicals from Sigma-Aldrich) to OD600=0.2.
Cells from the early exponential growth phase were washed twice with sterile distilled water (1.5 min, 3000 g) and resuspended in MES-TEA buffer to OD600=0.2. The cell suspension was divided into 1 ml aliquots in Eppendorf tubes. One sample served as a control, the tested compounds (peptides, ODDC) were added in selected concentrations to the rest of samples. Cells were incubated with drugs with occasional gentle stirring for 15 minutes, then 10 μl of cells were diluted 100-fold in distilled water and 15 μl aliquots were spread on 2% YPD agar (Formedium) plates (diameter of Petri plate 9 cm). The samples were always plated in triplicates. The number of colonies was determined after 24-h incubation of the plates at 30° C. […]

Bacillus subtilis = conditions: Bacillus subtilis; 37° C., 20 h
In short: (§5)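 Exponential-phase bacteria diluted in fresh medium, ca 10^5 CFU per well, with peptides in LB at final 0.1–100 μmol.l^−1 (twofold dilutions).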

Candida albicans Olomouc = conditions: Candida albicans Olomouc; YPD medium; 37° C., 20 h (Example 2)
[4] = tested on: Enterococcus faecalis Motol; conditions: BHI medium, 37° C., 20 h
Escherichia coli = conditions: 37° C., 20 h
In short: as §5

[5] = tested on: Methicillin resistant Staphylococcus aureus (MRSA) 6271; conditions: 37° C., 20 h
In short: as §5

[6] = tested on: Pseudomonas aeruginosa 5482; conditions: 37° C., 20 h
In short: as §5

[7] = tested on: Pseudomonas aeruginosa Liberec; conditions: Pseudomonas aeruginosa Liberec; 37° C., 20 h
In short: as §5

[8] = tested on: Staphylococcus aureus Liberec; conditions: Staphylococcus aureus Liberec clinical isolate; 37° C., 20 h
In short: as §5

[9] = tested on: Staphylococcus aureus Motol; conditions: Staphylococcus aureus Motol clinical isolate; 37° C., 20 h
In short: as §5

[10] = tested on: Staphylococcus epidermidis Motol; conditions: 37° C., 20 h
In short: as §5

human red blood cells = assay: in vitro; conditions: read-out: Hemolytic activity LC50; lysis of 50% of human erythrocytes; 1 h at 37° C.
In short: as §1

[11] = peptide concentration 8 μmol · l^−1
[12] = peptide concentration 16 μmol · l^−1
[13] = peptide concentration 32 μmol · l^−1
[14] = peptide concentration 64 μmol · l^−1
[15] = peptide concentration 128 μmol · l^−1

CC[C@@H](C)[C@@H](NC(=O)CN)C(=O)N[C@H](CCSC)C(=O)N[C@H](CO)C(=O)N[C@H](CO)C(=O)N[C@H](CC(C)C)C(=O)N[C@H](CCSC)C(=O)N[C@H](CCCCN)C(=O)N[C@H](CCCCN)C(=O)N[C@H](CC(C)C)C(=O)N[C@H](CCCCN)C(=O)N[C@H](CCCCN)C(=O)N[C@@H](C(=O)N[C@@H](C(=O)N[C@H](C)C(=O)N[C@H](CCCCN)C(N)=O)[C@H](C)CC)[C@H](C)CC [II] (HELM PEPTIDE1{G.[dI].[dM].[dS].[dS].[dL].[dM].[dK].[dK].[dL].[dK].[dK].[dI].[dI].[dA].[dK].[am]}$$$$V2.0)
CC50 at 1 h (in vitro): > 400 µM | Metabolic activity (%) S. aureus (Liberec) [1, 11]: 143.1% | Metabolic activity (%) S. aureus (Liberec) [1, 12]: 138.8% | Metabolic activity (%) S. aureus (Liberec) [1, 13]: 107.5% | Metabolic activity (%) S. aureus (Liberec) [1, 14]: 29.9% | Metabolic activity (%) S. aureus (Liberec) [1, 15]: 7.7% | Metabolic activity (%) P. aeruginosa (Liberec) [2, 11]: 94.2% | Metabolic activity (%) P. aeruginosa (Liberec) [2, 12]: 100.5% | Metabolic activity (%) P. aeruginosa (Liberec) [2, 13]: 79.1% | Metabolic activity (%) P. aeruginosa (Liberec) [2, 14]: 33.0% | Metabolic activity (%) P. aeruginosa (Liberec) [2, 15]: 26.7% | Metabolic activity of C. albicans (%) ([3]; peptide concentration 6.25 μmol · l^−1, 20 hours): 105.3% | Metabolic activity of C. albicans (%) ([3]; peptide concentration 12.5 μmol · l^−1, 20 hours): 114.2% | Metabolic activity of C. albicans (%) ([3]; peptide concentration 25 μmol · l^−1, 20 hours): 35.2% | Metabolic activity of C. albicans (%) ([3]; peptide concentration 50 μmol · l^−1, 20 hours): 1.0% | Metabolic activity of C. albicans (%) ([3]; peptide concentration 100 μmol · l^−1, 20 hours): 0.0% | Metabolic activity of C. albicans (%) ([3]; peptide concentration 200 μmol · l^−1, 20 hours): 0.0% | antifungal (lethal) effect in plating test (C. glabrata ATCC 2001): high antifungal effect

H-Gly-Ile-Leu-Ser-Ser-Leu-Trp-Lys-Lys-Leu-Lys-Lys-Ile-Ile-Ala-Lys-NH2 (H-GILSSLWKKLKKIIAK-NH2; also: D-amino acids (positions not given here)) [XIX]
Antimicrobial activity MIC B. s. (Bacillus subtilis): 2.0 µM | Antimicrobial activity MIC C. a. Olomouc (Candida albicans Olomouc): 26.0 µM | Antimicrobial activity MIC E. f. Motol [4]: 6.5 µM | Antimicrobial activity MIC E. c. (Escherichia coli): 13.0 µM | Antimicrobial activity MIC S. a. 6271 [5]: 6.3 µM | Antimicrobial activity MIC P. a. 5482 [6]: 6.3 µM | Antimicrobial activity MIC P. a. Liberec [7]: 8.5 µM | Antimicrobial activity MIC S. a. Liberec [8]: 3.2 µM | Antimicrobial activity MIC S. a. Motol [9]: 3.2 µM | Antimicrobial activity MIC S. e. Motol [10]: 1.6 µM | CC50 (human red blood cells): > 200 µM | Metabolic activity (%) S. aureus (Liberec) [1, 11]: 72.8% | Metabolic activity (%) S. aureus (Liberec) [1, 12]: 2.8% | Metabolic activity (%) S. aureus (Liberec) [1, 13]: 2.3% | Metabolic activity (%) S. aureus (Liberec) [1, 14]: 2.3% | Metabolic activity (%) S. aureus (Liberec) [1, 15]: 1.7%

Source: patent US10160785B2, “Antimicrobial peptides and their use for the treatment of topical infections” (priority 2015, dated 2018)
